Measured values reported in patent US8168651B2, “Protein kinase modulators” (Cylene Pharmaceuticals, Inc., priority 2008, dated 2012).
Read-outs that look alike come from different tables or passages of the source.

How the values were obtained:
[1] = test system: Jurkat; experiment: Cell proliferation modulatory activity, Jurkat; format: cell-based; conditions: Homo sapiens
[2] = target: recombinant human PIM1 (Homo sapiens (Human), UniProt P11309); experiment: PIM-1 kinase activity in cell-free in vitro assay; format: biochemical; conditions: cell-free assay; for inhibition at 0.5 µM: 500 nM compound, read-out: PIM-1: % inh 500 nM
recombinant human PIM1, sequence (P11309 whole entry): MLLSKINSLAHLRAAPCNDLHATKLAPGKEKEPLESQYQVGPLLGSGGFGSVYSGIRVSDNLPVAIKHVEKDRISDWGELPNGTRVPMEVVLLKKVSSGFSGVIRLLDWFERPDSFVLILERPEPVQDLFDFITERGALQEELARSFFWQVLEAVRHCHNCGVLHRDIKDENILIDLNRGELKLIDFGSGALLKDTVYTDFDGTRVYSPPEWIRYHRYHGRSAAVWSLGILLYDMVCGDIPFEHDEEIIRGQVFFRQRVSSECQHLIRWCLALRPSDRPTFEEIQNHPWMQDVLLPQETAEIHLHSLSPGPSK

[3] = test system: HCT-116 human colorectal carcinoma cells; experiment: Cell-proliferation assay using Alamar Blue dye; format: cell-based; conditions: Homo sapiens;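 also: cells exposed to compound for about 4 days, then Alamar Blue added and dye fluorescence read after about 4 h, compared with medium-only control wells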
[4] = HCT-116, read-out: HCT-116 (uM), cell proliferation modulatory activity, HCT-116, second HCT-116 column (c8)
[5] = HCT-116, HCT-116, second HCT-116 column (c8), read-out: HCT-116 (uM), cell proliferation modulatory activity

SMILES | IC50 [1] [µM] | inhibition at 0.5 µM [2] [%] | IC50 [3, 4] [µM] | IC50 [2] [nM] | IC50 [3, 5] [µM]
O=C(O)c1ccc2c(c1)nc(Nc1ccccc1)c1nc(NCCCN3CCOCC3)ncc12 | 2.18 | 33.7 | > 10 |  | 
C#Cc1cccc(Nc2nc3cc(C(=O)O)ccc3c3cnc(NC4CC4)nc23)c1 | 1.27 | -38.6 | 7.3 |  | 
C#Cc1cccc(Nc2nc3cc(C(=O)O)ccc3c3cnc(NC)nc23)c1 | 1.29 | 68.2 | 4.69 | 661 | 
CNc1ncc2c(n1)c(Nc1cccc(Cl)c1)nc1cc(C(=O)O)ccc12 | 1.09 | 51.5 | > 10 |  | 
CNc1ncc2c(n1)c(NC1CC1)nc1cc(C(=O)O)ccc12 | 9.68 | 52.4 | > 10 | 535 | 
Nc1ncc2c(n1)c(Nc1cccc(C(F)(F)F)c1)nc1cc(C(=O)O)ccc12 | 2.66 | 74.3 | > 10 | 443 | 
O=C(O)c1ccc2c(c1)nc(NC1CC1)c1nc(NCc3ccncc3)ncc12 | 35.6 | 8.18 | > 10 |  | 
O=C(O)c1ccc2c(c1)nc(NC1CC1)c1nc(NCc3ccccn3)ncc12 | 23.3 | 11.2 | > 10 |  | 
O=C(O)c1ccc2c(c1)nc(NC1CC1)c1nc(NCCc3ccccc3)ncc12 | 0.826 | -11.1 | > 10 |  | 
CC(C)Nc1ncc2c(n1)c(NC1CC1)nc1cc(C(=O)O)ccc12 | 2.14 | 73.3 | > 10 | > 1100 | 
O=C(O)c1ccc2c(c1)nc(NC1CC1)c1nc(Nc3cccc(C(F)(F)F)c3)ncc12 | 2.39 | 44.2 | > 10 |  | 
Cc1ccccc1Nc1ncc2c(n1)c(NC1CC1)nc1cc(C(=O)O)ccc12 | 18.6 | 52.8 |  | 994 | > 10
CCOc1cccc(Nc2ncc3c(n2)c(NC2CC2)nc2cc(C(=O)O)ccc23)c1 | 5.17 | 32.8 |  |  | 3.77
CCOc1ccc(Nc2ncc3c(n2)c(NC2CC2)nc2cc(C(=O)O)ccc23)cc1 | 9.26 | 45.9 |  |  | > 10
CC(C)Oc1ccc(Nc2ncc3c(n2)c(NC2CC2)nc2cc(C(=O)O)ccc23)cc1 | 18.9 | 26.3 |  |  | > 10
CC(=O)Nc1cccc(Nc2ncc3c(n2)c(NC2CC2)nc2cc(C(=O)O)ccc23)c1 | > 62.5 | 32 |  |  | > 10
O=C(O)c1ccc2c(c1)nc(NC1CC1)c1nc(Nc3cc(F)ccc3F)ncc12 | 15.7 | 50.4 |  | > 1100 | > 10
O=C(O)c1ccc2c(c1)nc(NC1CC1)c1nc(Nc3cc(F)cc(F)c3)ncc12 | 35.4 | 46.3 |  |  | > 10
Nc1nc2cc(C(=O)O)ccc2c2cnc(NC3CC3)nc12 | 55.2 | 0.938 |  |  | > 10
O=C(O)c1ccc2c(c1)nc(Nc1ccc(Oc3ccccc3)cc1)c1ccncc12 | 22.9 | 57.2 |  | > 1100 | > 10
C#Cc1cccc(Nc2nc3cc(C(=O)N4CCCC4)ccc3c3cncnc23)c1 | 13.3 | -7.6 |  |  | > 10
C#Cc1cccc(Nc2nc3cc(C(=O)N4CCOCC4)ccc3c3cncnc23)c1 | > 30 | -17.6 |  |  | > 10

SMILES | IC50 [1] [µM] | inhibition at 0.5 µM [2] [%] | IC50 [3, 4] [µM] | IC50 [2] [nM] | IC50 [3, 5] [µM]
C#Cc1cccc(Nc2nc3cc(C(=O)N(C)c4ccccc4)ccc3c3cncnc23)c1 | 18.8 | -11.2 |  |  | > 10
C#Cc1cccc(Nc2nc3cc(C(=O)NCc4ccc(C#N)cc4)ccc3c3cncnc23)c1 | 9.09 | -14.6 |  |  | > 10
C#Cc1cccc(Nc2nc3cc(C(=O)N(C)CCN(C)C)ccc3c3cncnc23)c1 | 4.37 | -15.5 |  |  | 4.39
C#Cc1cccc(Nc2nc3cc(C(=O)N4CCCN(C)CC4)ccc3c3cncnc23)c1 | 3.22 | -11.2 |  |  | > 10
CSc1ncc2c(n1)c(N(C)c1ccccc1)nc1cc(C(=O)O)ccc12 | > 30 | 48.4 |  | 1090 | > 10
COC(=O)c1ccc2c(c1)nc(Nc1ccccc1C)c1nc(S(C)(=O)=O)ncc12 | > 30 | 25.3 |  |  | > 10
Cc1c(-c2cc(Nc3nc4cc(C(=O)O)ccc4c4cnccc34)n(C)n2)sc2ccc(Cl)cc12 | 19.6 | 4.53 |  |  | > 10
Cc1ccc(Nc2nc3cc(C(=O)O)ccc3c3cnccc23)nc1 | 1.26 | 48.3 |  | > 1100 | > 10
O=C(O)c1ccc2c(c1)nc(N1CCC(c3ccccc3)C1)c1ccncc12 (stereo not shown) | > 30 | 1.04 |  |  | > 10
O=C(O)c1ccc2c(c1)nc(Nc1cccc(Oc3ccccc3)c1)c1ccncc12 | > 30 | 44.1 |  |  | > 10
O=C(O)c1ccc2c(c1)nc(Nc1ccc(OC(F)(F)F)cc1)c1ccncc12 | 4.7 | 68.3 |  | 668 | > 10
COc1cc(Nc2nc3cc(C(=O)O)ccc3c3cnccc23)ccc1C | 10.7 | 75.8 |  | 744 | > 10
Cc1ccc(C(N)=O)cc1Nc1nc2cc(C(=O)O)ccc2c2cnccc12 | > 30 | 9.95 |  |  | > 10
O=C(O)c1ccc2c(c1)nc(Nc1cccc(OC(F)(F)F)c1)c1ccncc12 | 7.44 | 87.3 |  | 711 | > 10
COc1ccccc1Nc1nc2cc(C(=O)O)ccc2c2cnccc12 | 10.4 | 75.8 |  | 698 | > 10
COC(=O)c1ccc2c(c1)nc(NC1CC1)c1nc(SCc3ccccc3Cl)ncc12 [drawing 1611] | 4.67 | -0.924 |  |  | > 10
O=C(O)c1ccc2c(c1)nc(NC1CC1)c1nc(SCc3ccccc3Cl)ncc12 [drawing 1614] | 29.3 | 7.49 |  |  | > 10
O=C(O)c1ccc2c(c1)nc(NC1CC1)c1nc(NC3CC3)ncc12 [drawing 1616] | 3.45 | 27.1 | > 10 |  | 
O=C(O)c1ccc2c(c1)nc(NC1CC1)c1nc(NCc3ccccc3)ncc12 [drawing 1617] | 8.82 | 34.5 | > 10 |  | 
O=C(O)c1ccc2c(c1)nc(NC1CC1)c1nc(Nc3ccccc3)ncc12 [drawing 1618] | 4.6 | 46 | > 10 |  | 
O=C(O)c1ccc2c(c1)nc(N1CCOCC1)c1nc(NC3CC3)ncc12 [drawing 1627] | 3.67 | 26 |  |  | > 10
COC(=O)c1ccc2c(c1)nc(NC1CC1)c1nc(SC)ncc12 [drawing 1641] | > 50 | 17.1 |  |  | > 10
